Source: publication PMC7445428, “Simplified dolutegravir dosing for children with HIV weighing 20 kg or more: pharmacokinetic and safety substudies of the multicentre, randomised ODYSSEY trial” (The Lancet. HIV, 2020)
Like-named read-outs stand apart in the source and are kept apart here. Marks after values point to notes of the source that are not given here.

Legend:
[1] = design: species or system human
Procedure: The pharmacokinetic substudy for children weighing 25 kg to less than 40 kg was a within-subject, two-period, fixed-order, pharmacokinetic study with paediatric dolutegravir doses approved by the SRAs at the time of the study used in the first period and a higher (adult) dose of 50 mg as film-coated tablet in the second period. A child first completed 24-h intensive pharmacokinetic sampling after at least 1 week of receiving 25 mg film-coated tablets if they were in the 25 kg to less than 30 kg weight band or 35 mg (one 10 mg and one 25 mg film-coated tablet) if they were in the 30 to less than 40 kg weight band. The second 24-h pharmacokinetic profile was taken at least 1 week after the switch to a daily 50 mg film-coated tablet.
In a parallel pharmacokinetic substudy, children weighing 20 kg to less than 25 kg had 24-h intensive pharmacokinetic profiling on the once-daily dose of dolutegravir 25 mg film-coated tablet (part one). After review of the results, we did a subsequent substudy (part two) in children weighing 20 to less than 25 kg, investigating higher dolutegravir doses to achieve better exposures. On the basis of results of part one and to simplify dosing and future access to formulations, we studied the 50 mg adult film-coated tablet. Because we were concurrently investigating dispersible dolutegravir tablets in children weighing less than 20 kg (not reported here), we also studied a 30 mg dose given as six 5 mg dispersible tablets, which is bioequivalent to a 50 mg film-coated tablet,[16] as an option for children unable to swallow adult tablets. Dolutegravir 50 mg film-coated tablet or 30 mg dispersible tablet formulations were allocated by site. This substudy primarily enrolled children who had not participated in part one because children initially recruited in this weight band had gained weight and were no longer in the weight band.
To achieve steady-state, children attended their pharmacokinetic study visit day at least 7 days after starting on the investigated dolutegravir dose. We ascertained medication adherence during the last 3 days before the day of pharmacokinetic assessment to ensure that no doses had been missed. To construct a dolutegravir plasma concentration-time profile, blood samples of 2 mL were taken at baseline and 1, 2, 3, 4, 6, and 24 h after observed dolutegravir intake with 100 mL of water. To conform with adult comparator studies, participants fasted at least 3 h before dolutegravir intake, although an overnight fast was preferred. Dispersible tablets were dispersed in a small amount of water and immediately taken, followed by an additional intake of water up to a volume of 100 mL. We allowed no medications, other than nucleoside reverse transcriptase inhibitors, within 2 h after dolutegravir intake. Children fasted 2 h after dolutegravir intake before having a light breakfast (containing approximately 250 calories). During pharmacokinetic assessment days all food was provided at set times.
We refrigerated blood samples within 10 min and centrifuged them within 24 h of collection. Plasma was separated and stored at −80°C until shipping to the laboratory of the Department of Pharmacy, Radboudumc, Nijmegen, Netherlands for quantification with a validated liquid chromatography tandem mass spectrometry bioanalytical quantification method (lower limit of quantification of 0·01 mg/L).[18]
We included all participants consenting to inclusion in the pharmacokinetic substudies in the safety analyses. For the pharmacokinetic analyses, we considered haemolysed samples non-evaluable and excluded pharmacokinetic profiles if treatment non-adherence was likely (predefined when a predose concentration [C0] was >15 times below the concentration 24 h after observed drug intake (trough concentration [Ctrough]), if protocol violations had occurred, or if concomitant medications known to affect dolutegravir drug concentrations had been used. […]

[2] = Safety follow-up (serious, grade 3 or 4 adverse events) over 24 weeks in children of the pharmacokinetic substudies; type: in vivo, human
Procedure: Children enrolled in the pharmacokinetic substudies attended study visits following the main ODYSSEY trial protocol (visits every 12 weeks after week 4 from enrolment). Participants whose dose was increased to 30 mg dispersible tablets or the 50 mg film-coated tablet had additional safety visits at weeks 2, 4, and 12 after dose adaptation. At each visit, we did a clinical assessment, including haematology and biochemistry safety parameters. We ascertained serious adverse events (defined according to International Conference on Harmonisation Guideline for Good Clinical Practice), grade 3 and 4 clinical and laboratory events, and events resulting in modification of ART (any grade).
All children consenting to inclusion in a pharmacokinetic substudy contributed safety data from the start of each pharmacokinetic dose for 24 weeks or to last follow-up visit, whichever was earlier; no participant commenced a second pharmacokinetic dose before completing 24 weeks on the first pharmacokinetic dose with the exception of children weighing 25 kg to less than 40 kg crossing over from the doses approved by the SRAs at the time of the study the 50 mg film-coated tablet, with which follow-up could be shorter. As part of the ODYSSEY trial, an independent endpoint review committee who were masked to trial groups (third drug of ART regimen) reviewed all reported adverse events. We did descriptive analysis reporting follow-up and adverse events by dose and weight band in STATA (version 15.0). An independent data monitoring committee reviewed conduct, pharmacokinetic, and safety data from these substudies. The ODYSSEY trial is registered with ClinicalTrials.gov, NCT02259127.

plasma HIV-1 RNA = tested on: plasma HIV-1 RNA; design: method as in PMID 22018760; details: adults, 96 weeks, cited from earlier work
[3] = design: method as in PMID 22183173; details: adult healthy volunteers, cited from earlier work
[4] = design: method as in earlier work; details: cited from earlier work
[5] = 20 to <25 kg, 9 patients (50 mg) FCT
[6] = 20 to <25 kg, 10 patients (30 mg) DT
[7] = 20 to <25 kg, 17 patients (25 mg) FCT
[8] = 25 to <30 kg, 17 patients (25 mg) FCT
[9] = 25 to <30 kg, 17 patients (50 mg) FCT
[10] = 30 to <40 kg, 11 patients (35 mg) FCT
[11] = 30 to <40 kg, 11 patients (50 mg) FCT

With `C[C@@H]1CCO[C@H]2Cn3cc(C(=O)NCc4ccc(F)cc4F)c(=O)c(O)c3C(=O)N12` [dolutegravir] the “Children with individual Ctrough below 0·32 mg/L (in vivo EC90)” value ([1]; human, 24 h) was 12 (30%) n (%), the “AUC0-24h / Dose geometric mean ratio (90% CI), 50 mg FCT vs 25/35 mg FCT” value ([1]; human, in vivo) was 0∙91 (0∙85-0∙97) and the “Cmax / Dose geometric mean ratio (90% CI), 50 mg FCT vs 25/35 mg FCT” value ([1]; human, in vivo) was 0∙89 (0∙82-0∙96). The “GM Cmax higher than in adults on 50 mg twice-daily” value ([1]; human, in vivo) was 32%, the “GM Cmax higher than in adults on 50 mg twice-daily” value ([1]; human, in vivo, 50 mg) was 17% and the “Ctrough / Dose geometric mean ratio (90% CI), 50 mg FCT vs 25/35 mg FCT” value ([1]; human, in vivo, 24 h) was 0∙98 (0∙87-1∙10). For the same molecule, the “Ctrough geometric mean ratio (90% CI), 50 mg FCT vs 30 mg DT” value ([1]; human, in vivo, 24 h) was 0∙99 (0∙57-1∙71), the “Equivalence, 50 mg FCT vs 30 mg DT” value ([1]; in vivo) was “Suggested” and the “Total adverse events (grade 3 or 4 or serious adverse event)” value (“Total adverse events” below) ([2]; 17 patients (25 mg) FCT) was 3 (18%) n (%). For the same molecule, the “Anaemia (grade 3 or 4 asymptomatic laboratory event)” value (“Anaemia” below) [2, 5] was 0 n (%), the “Cryptococcal meningitis (grade 3 or 4 clinical adverse event)” value (“Cryptococcal meningitis” for short) [2, 5] was 0 n (%) and the “Grade 3 or 4 asymptomatic laboratory events” value [2, 5] was 0 n (%). The “Grade 3 or 4 clinical adverse events” value [2, 5] was 0 n (%), the “Neutropenia (grade 3 or 4 asymptomatic laboratory event)” value (“Neutropenia” below) [2, 5] was 0 n (%) and the “Thrombocytopenia and raised transaminases (grade 3 or 4 asymptomatic laboratory event)” value [2, 5] was 0 n (%). The “Anaemia” value [2, 6] was 0 n (%), the “Cryptococcal meningitis” value [2, 6] was 0 n (%) and the “Grade 3 or 4 asymptomatic laboratory events” value [2, 6] was 0 n (%). For the same molecule, the “Grade 3 or 4 clinical adverse events” value [2, 6] was 0 n (%), the “Neutropenia” value [2, 6] was 0 n (%) and the “Thrombocytopenia and raised transaminases (grade 3 or 4 asymptomatic laboratory event)” value [2, 6] was 0 n (%). For the same molecule, the “Anaemia” value [2, 7] was 0 n (%), the “Cryptococcal meningitis” value [2, 7] was 0 n (%) and the “Grade 3 or 4 asymptomatic laboratory events” value [2, 7] was 3 (18%) n (%). The “Grade 3 or 4 clinical adverse events” value [2, 7] was 0 n (%), the “Anaemia” value [2, 8] was 0 n (%) and the “Cryptococcal meningitis” value [2, 8] was 0 n (%). For the same molecule, the “Grade 3 or 4 asymptomatic laboratory events” value [2, 8] was 0 n (%), the “Grade 3 or 4 clinical adverse events” value [2, 8] was 0 n (%) and the “Neutropenia” value [2, 8] was 0 n (%). For the same molecule, the “Thrombocytopenia and raised transaminases (grade 3 or 4 asymptomatic laboratory event)” value [2, 8] was 0 n (%), the “Anaemia” value [2, 9] was 0 n (%) and the “Cryptococcal meningitis” value [2, 9] was 0 n (%). For the same molecule, the “Grade 3 or 4 asymptomatic laboratory events” value [2, 9] was 1 (6%) n (%), the “Grade 3 or 4 clinical adverse events” value [2, 9] was 0 n (%) and the “Neutropenia” value [2, 9] was 1 (6%) n (%). For the same molecule, the “Thrombocytopenia and raised transaminases (grade 3 or 4 asymptomatic laboratory event)” value [2, 9] was 0 n (%), the “Total adverse events” value [2, 9] was 1 (6%) n (%) and the Reportable adverse events ([2]; 28 children weighing 25 kg or more on 50 mg film-coated tablets, follow-up 24 weeks) was “three”. The “Anaemia” value [2, 10] was 0 n (%), the “Cryptococcal meningitis” value [2, 10] was 0 n (%) and the “Grade 3 or 4 asymptomatic laboratory events” value [2, 10] was 0 n (%). For the same molecule, the “Grade 3 or 4 clinical adverse events” value [2, 10] was 0 n (%), the “Neutropenia” value [2, 10] was 0 n (%) and the “Thrombocytopenia and raised transaminases (grade 3 or 4 asymptomatic laboratory event)” value [2, 10] was 0 n (%). The “Anaemia” value [2, 11] was 1 (9%) n (%), the “Grade 3 or 4 asymptomatic laboratory events” value [2, 11] was 1 (9%) n (%) and the “Grade 3 or 4 clinical adverse events” value [2, 11] was 1 (9%) n (%). The “Neutropenia” value [2, 11] was 0 n (%), the “Thrombocytopenia and raised transaminases (grade 3 or 4 asymptomatic laboratory event)” value [2, 11] was 0 n (%) and the “Total adverse events” value [2, 11] was 2 (18%) n (%). The “Cryptococcal meningitis” value ([2]; 30 to <40 kg, 11 patients (50 mg) FCT, serious adverse event) was 1 (9%) ^** n (%), the “Adverse events considered related to dolutegravir” value ([2]; 47 children on 50 mg film-coated tablet or 30 mg dispersible tablets, reporting clinicians and endpoint review committee) was “none” and the “Sustained virological response rate (plasma HIV-1 RNA <50 copies per mL)” value (plasma HIV-1 RNA; 10 mg film-coated tablet once daily) was 79%. For the same molecule, the “Sustained virological response rate (plasma HIV-1 RNA <50 copies per mL)” value (plasma HIV-1 RNA; 50 mg film-coated tablet once daily) was 88%, the “Increase of C24 with food compared with fasting” value (shortened to “Increase of C24 with food”) ([3]; high fat meal) was 73% and the “Increase of C24 with food” value ([3]; low fat meal) was 33%. The “Increase of C24 with food” value ([3]; moderate fat meal) was 45% and the “Bioequivalence of 30 mg dose as six 5 mg dispersible tablets to 50 mg film-coated tablet” value [4] was “bioequivalent”.
